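Cells were grown in 96-well plates and exposed to each compound for 48 hours at five concentrations; endpoints were interpolated linearly between bracketing concentrations, or set to the highest concentration if not reached. At the TGI there is no net growth.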
How the values were obtained:
Assay in all cases: NCI tumour cell line growth inhibition, 48 h
786-0 renal = system: 786-0 renal
A498 renal = system: A498 renal
A549 NSCLC = system: A549 NSCLC
ACHN renal = system: ACHN renal
CAKI-1 renal = system: CAKI-1 renal
CCRF-CEM leukemia = system: CCRF-CEM leukemia
COLO 205 colon = system: COLO 205 colon
DU-145 prostate = system: DU-145 prostate
EKVX NSCLC = system: EKVX NSCLC
HCC-2998 colon = system: HCC-2998 colon
HCT-116 colon = system: HCT-116 colon
HCT-15 colon = system: HCT-15 colon
HL-60(TB) leukemia = system: HL-60(TB) leukemia
HOP-62 NSCLC = system: HOP-62 NSCLC
HOP-92 NSCLC = system: HOP-92 NSCLC
HS 578T breast = system: HS 578T breast
HT29 colon = system: HT29 colon
IGROV1 ovarian = system: IGROV1 ovarian
K-562 leukemia = system: K-562 leukemia
KM12 colon = system: KM12 colon
LOX IMVI melanoma = system: LOX IMVI melanoma
M14 melanoma = system: M14 melanoma
MALME-3M melanoma = system: MALME-3M melanoma
MDA-MB-231 breast = system: MDA-MB-231 breast
MDA-MB-435 = system: MDA-MB-435
MDA-N = system: MDA-N
MOLT-4 leukemia = system: MOLT-4 leukemia
NCI-H226 lung = system: NCI-H226 lung
NCI-H23 lung = system: NCI-H23 lung
NCI-H522 lung = system: NCI-H522 lung
NCI/ADR-RES ovarian = system: NCI/ADR-RES ovarian
OVCAR-3 ovarian = system: OVCAR-3 ovarian
OVCAR-4 ovarian = system: OVCAR-4 ovarian
OVCAR-5 ovarian = system: OVCAR-5 ovarian
OVCAR-8 ovarian = system: OVCAR-8 ovarian
PC-3 prostate = system: PC-3 prostate
RPMI-8226 leukemia = system: RPMI-8226 leukemia
RXF 393 renal = system: RXF 393 renal
SF-268 CNS = system: SF-268 CNS
SF-295 CNS = system: SF-295 CNS
SF-539 CNS = system: SF-539 CNS
SK-MEL-2 melanoma = system: SK-MEL-2 melanoma
SK-MEL-28 melanoma = system: SK-MEL-28 melanoma
SK-MEL-5 melanoma = system: SK-MEL-5 melanoma
SK-OV-3 ovarian = system: SK-OV-3 ovarian
SN12C renal = system: SN12C renal
SNB-19 CNS = system: SNB-19 CNS
SNB-75 CNS = system: SNB-75 CNS
SW-620 colon = system: SW-620 colon
T-47D breast = system: T-47D breast
TK-10 renal = system: TK-10 renal
U251 CNS = system: U251 CNS
UACC-257 melanoma = system: UACC-257 melanoma
UO-31 renal = system: UO-31 renal
BT-549 breast = system: BT-549 breast
MCF7 breast = system: MCF7 breast
NCI-H460 lung = system: NCI-H460 lung
UACC-62 melanoma = system: UACC-62 melanoma
SR leukemia = system: SR leukemia

SMILES: COc1cc(C)c(/C=C/C(=O)N2C(=O)OC[C@@H]2c2ccccc2)c(C)c1
- TGI (786-0 renal): > 100 µM
- TGI (A498 renal): > 100 µM
- TGI (A549 NSCLC): > 100 µM
- TGI (ACHN renal): > 100 µM
- TGI (CAKI-1 renal): > 100 µM
- TGI (CCRF-CEM leukemia): > 100 µM
- TGI (COLO 205 colon): > 100 µM
- TGI (DU-145 prostate): > 100 µM
- TGI (EKVX NSCLC): > 100 µM
- TGI (HCC-2998 colon): > 100 µM
- TGI (HCT-116 colon): > 100 µM
- TGI (HCT-15 colon): > 100 µM
- TGI (HL-60(TB) leukemia): > 100 µM
- TGI (HOP-62 NSCLC): > 100 µM
- TGI (HOP-92 NSCLC): > 100 µM
- TGI (HS 578T breast): > 100 µM
- TGI (HT29 colon): 63.2 µM
- TGI (IGROV1 ovarian): > 100 µM
- TGI (K-562 leukemia): > 100 µM
- TGI (KM12 colon): > 100 µM
- TGI (LOX IMVI melanoma): > 100 µM
- TGI (M14 melanoma): > 100 µM
- TGI (MALME-3M melanoma): > 100 µM
- TGI (MDA-MB-231 breast): > 100 µM
- TGI (MDA-MB-435): > 100 µM
- TGI (MDA-N): > 100 µM
- TGI (MOLT-4 leukemia): 85.8 µM
- TGI (NCI-H226 lung): > 100 µM
- TGI (NCI-H23 lung): > 100 µM
- TGI (NCI-H522 lung): > 100 µM
- TGI (NCI/ADR-RES ovarian): > 100 µM
- TGI (OVCAR-3 ovarian): > 100 µM
- TGI (OVCAR-4 ovarian): > 100 µM
- TGI (OVCAR-5 ovarian): > 100 µM
- TGI (OVCAR-8 ovarian): > 100 µM
- TGI (PC-3 prostate): > 100 µM
- TGI (RPMI-8226 leukemia): > 100 µM
- TGI (RXF 393 renal): > 100 µM
- TGI (SF-268 CNS): > 100 µM
- TGI (SF-295 CNS): > 100 µM
- TGI (SF-539 CNS): > 100 µM
- TGI (SK-MEL-2 melanoma): > 100 µM
- TGI (SK-MEL-28 melanoma): > 100 µM
- TGI (SK-MEL-5 melanoma): > 100 µM
- TGI (SK-OV-3 ovarian): > 100 µM
- TGI (SN12C renal): > 100 µM
- TGI (SNB-19 CNS): > 100 µM
- TGI (SNB-75 CNS): > 100 µM
- TGI (SW-620 colon): > 100 µM
- TGI (T-47D breast): 74.1 µM
- TGI (TK-10 renal): > 100 µM
- TGI (U251 CNS): > 100 µM
- TGI (UACC-257 melanoma): > 100 µM
- TGI (UO-31 renal): > 100 µM

SMILES: Nc1nc(N)c(NC(=O)CCCO)c(=O)[nH]1
- TGI (786-0 renal): > 100 µM
- TGI (A498 renal): > 100 µM
- TGI (A549 NSCLC): > 100 µM
- TGI (ACHN renal): > 100 µM
- TGI (BT-549 breast): > 100 µM
- TGI (CAKI-1 renal): > 100 µM
- TGI (CCRF-CEM leukemia): > 100 µM
- TGI (COLO 205 colon): > 100 µM
- TGI (DU-145 prostate): > 100 µM
- TGI (EKVX NSCLC): > 100 µM
- TGI (HCC-2998 colon): > 100 µM
- TGI (HCT-116 colon): > 100 µM
- TGI (HCT-15 colon): > 100 µM
- TGI (HOP-62 NSCLC): > 100 µM
- TGI (HOP-92 NSCLC): > 100 µM
- TGI (HS 578T breast): > 100 µM
- TGI (HT29 colon): > 100 µM
- TGI (IGROV1 ovarian): > 100 µM
- TGI (K-562 leukemia): > 100 µM
- TGI (KM12 colon): > 100 µM
- TGI (LOX IMVI melanoma): > 100 µM
- TGI (M14 melanoma): > 100 µM
- TGI (MALME-3M melanoma): > 100 µM
- TGI (MCF7 breast): > 100 µM
- TGI (MDA-MB-231 breast): > 100 µM
- TGI (MDA-MB-435): > 100 µM
- TGI (MDA-N): > 100 µM
- TGI (MOLT-4 leukemia): > 100 µM
- TGI (NCI-H226 lung): > 100 µM
- TGI (NCI-H23 lung): > 100 µM
- TGI (NCI-H460 lung): > 100 µM
- TGI (NCI-H522 lung): > 100 µM
- TGI (NCI/ADR-RES ovarian): > 100 µM
- TGI (OVCAR-3 ovarian): > 100 µM
- TGI (OVCAR-4 ovarian): > 100 µM
- TGI (OVCAR-5 ovarian): > 100 µM
- TGI (OVCAR-8 ovarian): > 100 µM
- TGI (PC-3 prostate): > 100 µM
- TGI (RPMI-8226 leukemia): > 100 µM
- TGI (RXF 393 renal): > 100 µM
- TGI (SF-268 CNS): > 100 µM
- TGI (SF-295 CNS): > 100 µM
- TGI (SF-539 CNS): > 100 µM
- TGI (SK-MEL-2 melanoma): > 100 µM
- TGI (SK-MEL-5 melanoma): > 100 µM
- TGI (SK-OV-3 ovarian): > 100 µM
- TGI (SN12C renal): > 100 µM
- TGI (SNB-19 CNS): > 100 µM
- TGI (SNB-75 CNS): > 100 µM
- TGI (SW-620 colon): > 100 µM
- TGI (T-47D breast): > 100 µM
- TGI (TK-10 renal): > 100 µM
- TGI (U251 CNS): > 100 µM
- TGI (UACC-257 melanoma): > 100 µM
- TGI (UACC-62 melanoma): > 100 µM
- TGI (UO-31 renal): > 100 µM

SMILES: COc1cc(C)c2c(=O)c3ccccc3n(C)c2c1
- TGI (786-0 renal): > 100 µM
- TGI (A498 renal): 56.1 µM
- TGI (A549 NSCLC): > 100 µM
- TGI (ACHN renal): 55.7 µM
- TGI (BT-549 breast): 52.7 µM
- TGI (CAKI-1 renal): 76.5 µM
- TGI (CCRF-CEM leukemia): 75.4 µM
- TGI (COLO 205 colon): 91.1 µM
- TGI (DU-145 prostate): > 100 µM
- TGI (EKVX NSCLC): 91.9 µM
- TGI (HCC-2998 colon): > 100 µM
- TGI (HCT-116 colon): 34 µM
- TGI (HCT-15 colon): > 100 µM
- TGI (HL-60(TB) leukemia): 69.7 µM
- TGI (HOP-92 NSCLC): 25.8 µM
- TGI (HS 578T breast): 72.6 µM
- TGI (HT29 colon): 29 µM
- TGI (IGROV1 ovarian): 89.8 µM
- TGI (K-562 leukemia): 39.1 µM
- TGI (KM12 colon): > 100 µM
- TGI (LOX IMVI melanoma): 34.4 µM
- TGI (M14 melanoma): 60.8 µM
- TGI (MALME-3M melanoma): 73.2 µM
- TGI (MCF7 breast): > 100 µM
- TGI (MDA-MB-231 breast): > 100 µM
- TGI (MDA-MB-435): > 100 µM
- TGI (MDA-N): > 100 µM
- TGI (MOLT-4 leukemia): > 100 µM
- TGI (NCI-H226 lung): 69 µM
- TGI (NCI-H23 lung): 77 µM
- TGI (NCI-H460 lung): > 100 µM
- TGI (NCI-H522 lung): 5.74 µM
- TGI (NCI/ADR-RES ovarian): > 100 µM
- TGI (OVCAR-3 ovarian): 52.7 µM
- TGI (OVCAR-4 ovarian): 45.6 µM
- TGI (OVCAR-5 ovarian): > 100 µM
- TGI (OVCAR-8 ovarian): 78.8 µM
- TGI (PC-3 prostate): 78.2 µM
- TGI (RXF 393 renal): 40.4 µM
- TGI (SF-268 CNS): 95.9 µM
- TGI (SF-295 CNS): 34.9 µM
- TGI (SF-539 CNS): 34 µM
- TGI (SK-MEL-2 melanoma): 78.3 µM
- TGI (SK-MEL-28 melanoma): 89.3 µM
- TGI (SK-OV-3 ovarian): > 100 µM
- TGI (SN12C renal): 41.5 µM
- TGI (SNB-19 CNS): 98.6 µM
- TGI (SNB-75 CNS): 72.8 µM
- TGI (SR leukemia): 43 µM
- TGI (SW-620 colon): > 100 µM
- TGI (TK-10 renal): > 100 µM
- TGI (U251 CNS): 44.8 µM
- TGI (UACC-257 melanoma): 77 µM
- TGI (UACC-62 melanoma): 39.2 µM
